# According to patent publication US6444837B1, “Synthesis and antiviral activity of a series of pyrophosphate analogs” (University of Southern California, priority 1998, dated 2002):
# Tests used:
# [1] = XTT-tetrazolium assay of compound toxicity to host cells; format: cell-based; conditions: human; Table IV, six concentrations; read-out: TC50
# Experimental: Culturing these cells in the presence of phobol ester induces a lytic infection cycle, resulting in the release of viral particles into the medium. Compound efficacy in this proposed assay was determined using the Taqman PCR technology, and compound toxicity to host cells was assessed using an XTT-tetrazolium assay.
# 1. BCBL-1 cells were counted by the trypan blue dye exclusion method, and the cell count/mL was determined. Cells were pelleted by centrifugation and washed once with PBS to minimize the basal level of virus released from untreated cells which spontaneously enter the lytic cycle and release virus.
# 2. Cells were resuspended in fresh media and adjusted to a cell density of 1×10^5 per mL. Cells were then plated in the interior wells of 96-well round-bottom microtiter plates in a volume of 50 μL per well.
# 3. The phorbol ester TPA was added to appropriate wells in a volume of 50 μL per well to yield a final concentration of 20 ng/mL. Medium was added in place of TPA in three wells to serve as a negative control.
# 4. Test compounds were diluted in DMSO to a stock concentration which is 400× the desired high concentration. These compounds were further diluted in complete medium in 1.2 mL titertubes to yield a solution which is 2× the desired high concentration. […]
# 2. […] Plates were read on UVMax microtiter plate reader at a wavelength of 450/650 nm.
# [2] = target: HIV reverse transcriptase (Human immunodeficiency virus type 1 group M subtype B, UniProt P03366); conditions: HIV RT; cited from earlier work
# [3] = system: Cytomegalovirus (CMV); conditions: clinical trials, AIDS patients; cited from earlier work
# [4] = in vivo; cited from earlier work
# [5] = system: HHV-8; experiment: quantitative PCR-based (Taqman) assay for agents active against HHV-8 in TPA-induced BCBL-1 cells; format: cell-based, human herpesvirus 8
# Experimental: 3. […] Samples were incubated at 37° C. for 30 minutes.
# 4. […] Total reaction volumes were 50 μL.
SMILES,CC50 at 6 days [1] [µM],IC50 [2] [µM],efficacy in treatment of CMV infection [3],nephrotoxicity [3],oral bioavailability [4],TI (therapeutic index) [5],"IC50 ([5]; Human gammaherpesvirus 8, BCBL1, Table IV, six concentrations, Foscarnet value is average of six separate tests) [µM]","Activity ([5]; Table IV, by TI)",antiviral activity against HHV-8 (in words) ([5]; bioassay with HHV-8)
"O=C(O)P(=O)(O)O [Foscarnet, Trisodium phosphonoformate]",> 300,~1,efficacious,reversible nephrotoxicity,low,>38.9,7.7,active,–
CCCCCCCCCCCCCCOC(=O)P(=O)([O-])OC.[Na+] [ID# 8],–,–,–,–,–,–,–,–,moderate to relatively high antiviral activity
